Results from patent US12280090B2, “Antimicrobial peptides” (priority 2018, dated 2025).
Ends that are not written are not given here. Peptide text beside a SMILES is read from it.

Assays:
[1] = system: Escherichia coli—Extended spectrum beta-lactamase; assay type: cell-based
Summary of the method: (§1)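 MIC/MBC of cationic antimicrobial peptides by a broth method adapted for cationic peptides, against E. coli ATCC 25922 and clinical MDR isolates (ESBL, KPC, NDM). Some peptides made as TFA or acetate salts. Each run on a different day with multiple replicates.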

[2] = system: Escherichia coli—ATCC 25922 “wild type”; assay type: cell-based
Summary of the method: as §1

[3] = system: Escherichia coli—Carbapenemase-producing organism; New-Dehli Metallobetalactamase; assay type: cell-based
Summary of the method: as §1

[4] = system: Escherichia coli—Carbapenemase-producing organism; Klebsiella pneumoniae carbapenemase; assay type: cell-based
Summary of the method: as §1

[5] = Hemolysis test (HC50); details: red blood cells
Method: Peptides were tested for activity using as minimum inhibitory concentration (MIC), and minimum bactericidal concentration (MBC) determinations. For certain peptides, a hemolysis test was also conducted to determine HC50 (μg/mL) as an indicator of hemolytic activity based on the concentration of an antimicrobial compound that kills 50% red blood cells.
In Table 27, the designations P2, P2M, P3, P3M, P4, P4M, P5, P5M, P6, and P6M refer to peptides P2_CCH, P2_CCH_T15K_P7R, P3_CCH, P3_CCH_D8K_Q23C, P4_CCH, P4_CCH_P31K, P5_CCH, P5_CCH_A19K, P6_CCH, and P6_CCH_S12K, respectively, as defined above.

[6] = system: Salmonella Enteritidis; assay type: cell-based
Excerpt: (§2) Putative antimicrobial peptides were synthesized by GeneScript. A-list antimicrobial peptides re-synthesized by GeneScript. P2_CCH, P5_CCH, and P5_CCH_A19K were each synthesized under two conditions: standard synthesis using TFA, and the other with TFA-removal using acetate as a counter-ion. A MIC method, adapted for use with cationic antimicrobial peptides, was used to evaluate MIC antimicrobial activity (Hancock 1999).
(§3) The following data are presented to show the activity (MIC/MBC in μg/mL) of certain antimicrobial peptides described herein relative to a modified/synthetic version having a specified substitution. While data presented in tables above may be presented again, or may be represented in data provided in the tables below, such duplication is believed to assist the reader in readily noting comparisons. Different Run Numbers noted in the following tables denotes experiments conducted on different days, with each run reflecting multiple n values.

[7] = system: Staphylococcus aureus—ATCC 29213 “wild type”; assay type: cell-based; details: ATCC 29213
Method: (§4) Independent experiments were conducted with different strains of Staphylococcus aureus—ATCC 29213 “wild type”; and Staphylococcus aureus—Methicillin resistant Staphylococcus aureus.
(§5) The ATCC (American Type Culture Collection) strains received from Cedarlane. Multi drug resistant (MDR) strains, as clinical isolates, were received from the laboratory of Dr. Linda Hoang.
as §2, §3

[8] = system: Methicillin resistant Staphylococcus aureus; assay type: cell-based; details: Methicillin resistant
Method: as §4, §5, §2, §3

[9] = system: Salmonella Heidelberg (MDR); assay type: cell-based
Summary of the method: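 MIC/MBC in μg/mL determined by a broth MIC method adapted for cationic antimicrobial peptides against clinical-isolate multidrug-resistant strain. Some peptides were tested as TFA or acetate counter-ion preparations; runs on different days, each with multiple replicates.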

Compound	Minimum Inhibitory Concentration (MIC) [1]	Minimum Inhibitory Concentration (MIC) [2]	Minimum Inhibitory Concentration (MIC) [3]	Minimum Inhibitory Concentration (MIC) [4]	HC50 ([5]; RPMI)	Minimum Inhibitory Concentration (MIC) [6]	Minimum Inhibitory Concentration (MIC) [7]	Minimum Inhibitory Concentration (MIC) [8]	Minimum Inhibitory Concentration (MIC) [9]	MBC [4]	MIC [4]	HC50 ([5]; HC50 (hemolysis test))
CC[C@H](C)[C@H](NC(=O)[C@@H](NC(=O)[C@@H]1CCCN1C(=O)[C@H](Cc1ccccc1)NC(=O)[C@@H](N)Cc1ccccc1)[C@@H](C)CC)C(=O)N[C@@H](C)C(=O)N[C@@H](CCCNC(=N)N)C(=O)N[C@@H](CC(C)C)C(=O)N[C@@H](C)C(=O)N[C@@H](C)C(=O)N[C@@H](CCCCN)C(=O)N[C@H](C(=O)N[C@H](C(=O)N1CCC[C@H]1C(=O)N[C@@H](CO)C(=O)N[C@@H](CC(C)C)C(=O)N[C@H](C(=O)N[C@@H](CS)C(=O)N[C@@H](CCCCN)C(=O)N[C@H](C(=O)N[C@H](C(=O)N[C@@H](CCCCN)C(=O)N[C@@H](CCCCN)C(=O)N[C@@H](CS)C(=O)O)[C@@H](C)O)C(C)C)C(C)C)[C@@H](C)CC)C(C)C [Peptide P5_CCH_A19K] (H-FFPIIARLAAKVIPSLVCKVTKKC-OH; N-terminus and C-terminus assumed)	4 to 16 µg/mL	4 to 16 µg/mL	4 to 16 µg/mL	4 to 16 µg/mL	64 to 128 µg/mL	16 to 64 µg/mL	2 to 8 µg/mL	2 to 8 µg/mL	16 to 64 µg/mL	–	–	–
FFPRVLRLANKFLPKIYCALPKSVGN [P2_CCH_T15K_P7R]	2 to 8 µg/mL	4 to 8 µg/mL	4 to 8 µg/mL	8 µg/mL	–	32 to 64 µg/mL	64 to 128 µg/mL	32 to 64 µg/mL	16 to 64 µg/mL	8 µg/mL	8 µg/mL	64 µg/mL
